Measurements published in US20050282757A1, “Peptide boronic acid compounds useful in anticoagulation” (Trigen Limited, priority 2002, published 2005).
Converted amounts (≈) assume the structure as drawn. “And” between values parts separate entries of the source, which are not always exact repeats. Equal entries are not always repeated. “Also recorded” adds a separate entry of the source.

Key:
[1] = Hydrolysis under HPLC assay conditions; assay type: physicochemical; conditions: acid conditions of an HPLC assay / HPLC sample preparation
From the text: It has been discovered that TRI 50b tends to hydrolyse.

thrombin time and APTT = assay: Oral administration in dog, PK/PD (Example 45)
Protocol: Three female and three male dogs were used for each leg of the study. The weight range of the dogs was 8-18 kg.
The PD was measured as thrombin time and APTT using an automated coagulometer. Plasma concentrations were measured using an LCMS/MS method.
The dose was tailored on an individual basis for each dog.

thrombin time [2] = assay: Oral absorption in rat, thrombin time (Example 43); assay type: in vivo, male Wistar rats; conditions: 20 mg/kg oral gavage
Protocol: The procedure of Example 42 was followed.
The per-oral studies were performed using male Wistar rats, approximately 8 weeks of age and weighing between 250 and 300 g.
Food was withheld overnight prior to dosing and returned approximately 2 hours post-dose. Water was available adlibitum.
Each animal received a single administration of control or test article by oral gavage, using a constant dose volume of 4 mL/kg.
Individual dose volumes were based on individual body weights, obtained on the day of dosing.
(§1) Approximately 0.6 mL of blood was collected via a tail vein into 3.8% tri sodium citrate tubes approximately 48 hours prior to dosing and again at 0.5, 1, 2, 4 and 8 hours post-dose.
(§2) Plasma was prepared by centrifugation at […] for 10 minutes at 4° C. Plasma was stored frozen (nominally −20° C.) prior to analysis in an automated coagulometer.

[3] = Maximum aqueous solubility by UV after shaking in water at 37° C.; assay type: physicochemical; conditions: read-out: Solubility when dissolved at 50 mg/ml
thrombin time [4] = assay: Intraduodenal absorption in rat, thrombin time (Examples 42 and 44); assay type: in vivo, male Wistar rats; parameters: Mean increase in thrombin time / Thrombin time increase: unit not given here; conditions: for Group mean thrombin time (s ± sd): 20 mg/kg intraduodenal
Protocol: • Place 10 mg of the relevant compound in an Eppendorf cup • Add 0.5 mL ethanol and shake for 10 minutes • Sonicate for 10 minutes • Add 1.5 mL of buffer • Shake for additional 15 minutes • Resulting target concentration: 5 mg/mL B. Intraduodenal Studies
The intraduodenal studies were performed using male Wistar rats, approximately 8 weeks of age and weighing between 250 and 300 g.
Food was withheld overnight prior to dosing and returned approximately 2 hours post-dose. Water was available ad libitum.
Animals were anaesthetised using gaseous halothane. A small incision was made in the abdomen and the duodenum located. Each animal received a single administration of control or test article by injection directly into the duodenum, using a constant dose volume of 4 mL/kg. Following administration the incision was closed using surgical staples.
Individual dose volumes were based on individual body weights, obtained on the day of dosing. Treatments employed for the study were as follows:
as §1, §2
The thrombin times determined in example 42 were analysed to determine the standard deviation for increase in thrombin time, expressed as a percentage of the mean value (this is sometimes called the ‘coefficient of variation’).

[5] = Stability in simulated gastric fluid (Example 51); assay type: in vitro ADME; conditions: 37° C.
Protocol: Approximately 2.5 mg of the compound is dissolved in 50 ml gastric fluid (37° C., according to BP with pepsin, an aliquot is transferred into an HPLC-vial and analysed immediately (time period =0). The aliquots for further time periods in HPLC-vials are stored in an autosampler at 37° C. […]

[6] = individual rats dosed intraduodenally, in s
[7] = gastric juice 0 min, initial set to 100

## COCCC[C@H](NC(=O)[C@@H]1CCCN1C(=O)[C@@H](Cc1ccccc1)NC(=O)OCc1ccccc1)B1OC(C)(C)C(C)(C)O1 [TRI 50b, Cbz-(R)-Phe-Pro-BoroMpg-OPinacol]
[1]
  stability under HPLC assay conditions: converted to the acid form with a short half life

## COCCC[C@H](NC(=O)[C@@H]1CCCN1C(=O)[C@@H](Cc1ccccc1)NC(=O)OCc1ccccc1)B(O)O [TRI 50c, Cbz-(R)-Phe-(S)-Pro-(R)-Mpg-B(OH)2]
Thrombin time and APTT
  absorption as estimated by dynamic response (TT): Two animals failed to significantly absorb TRI 50c
  time of peak thrombin time post dose: 1.5 h
Thrombin time and APTT; base line 15 seconds (calcium salt), 15.4 seconds (TRI 50c)
  mean thrombin clotting time at peak (C max): 34.2 s
Thrombin time and APTT; enterically coated gelatine capsules
  tolerance: tolerated well with no adverse events; also recorded: well tolerated orally
Thrombin time [2]; 0.5 hour
  Group mean thrombin times (s ± sd): 26.8 ± 1.96 s
Thrombin time [2]; 1 hour
  Group mean thrombin times (s ± sd): 23.3 ± 3.68 s
Thrombin time [2]; 2 hour
  Group mean thrombin times (s ± sd): 23.9 ± 2.25 s
Thrombin time [2]; 4 hour
  Group mean thrombin times (s ± sd): 23.1 ± 2.70 s
Thrombin time [2]; 8 hour
  Group mean thrombin times (s ± sd): 25.1 ± 0.33 s
Thrombin time [2]; −48 hour (pre-dose)
  Group mean thrombin times (s ± sd): 22.9 ± 2.28 s
[3]
  solubility: 8 mM (≈ 4200 µg/mL)
Thrombin time [4]; 0.5 hour
  Group mean thrombin time (s ± sd): 42.1 ± 19.54 s
Thrombin time [4]; 1 hour
  Group mean thrombin time (s ± sd): 27.5 ± 9.42 s
Thrombin time [4]; 2 hour
  Group mean thrombin time (s ± sd): 23.5 ± 6.40 s
Thrombin time [4]; 4 hour
  Group mean thrombin time (s ± sd): 21.8 ± 2.33 s
Thrombin time [4]; 8 hour
  Group mean thrombin time (s ± sd): 21.5 ± 2.67 s
Thrombin time [4]; −48 hour (pre-dose)
  Group mean thrombin time (s ± sd): 21.3 ± 2.69 s
Thrombin time [4]; 0.5 h minus 0 h, intraduodenal
  Mean increase in thrombin time: 20.26
Thrombin time [4]; [6]
  Thrombin time, 0 h: 23.70 and 23.10 and 16.85 and 21.67
  Thrombin time, 0.5 h: 40.02 and 40.20 and 23.60 and 62.55
Thrombin time [4]; individual rats, 0.5 h minus 0 h
  Thrombin time increase: 16.32 and 17.10 and 6.75 and 40.88

## COCCC[C@H](NC(=O)[C@@H]1CCCN1C(=O)[C@@H](Cc1ccc(F)cc1)NC(=O)OCc1ccccc1)B([O-])O.[Na+] [TRIf monosodium salt]
[5]; [7]
  results, peak at rt 14.5 min: 100.0 peak-area-%
  results, peak at rt 17.3 min: 100.0 peak-area-%
  results, peak at rt […]: 100.0 peak-area-%
[5]; gastric juice 35 min
  results, peak at rt 14.5 min: 89.6 peak-area-%
  results, peak at rt 17.3 min: 99.1 peak-area-%
  results, peak at rt […]: 101.4 peak-area-%
[5]; gastric juice 70 min
  results, peak at rt 14.5 min: 84.6 peak-area-%
  results, peak at rt 17.3 min: 101.8 peak-area-%
  results, peak at rt […]: 101.1 peak-area-%
[5]; gastric juice 105 min
  results, peak at rt 14.5 min: 94.2 peak-area-%
  results, peak at rt 17.3 min: 100.3 peak-area-%
  results, peak at rt […]: 97.7 peak-area-%
[5]; gastric juice 140 min
  results, peak at rt 14.5 min: 93.9 peak-area-%
  results, peak at rt 17.3 min: 91.4 peak-area-%
  results, peak at rt […]: 94.6 peak-area-%
[5]; gastric juice 175 min
  results, peak at rt 14.5 min: 94.9 peak-area-%
  results, peak at rt 17.3 min: 97.7 peak-area-%
  results, peak at rt […]: 98.6 peak-area-%
[5]; gastric juice 210 min
  results, peak at rt 14.5 min: 98.1 peak-area-%
  results, peak at rt 17.3 min: 94.1 peak-area-%
  results, peak at rt […]: 94.4 peak-area-%

## COCCC[C@H](NC(=O)[C@@H]1CCCN1C(=O)[C@@H](Cc1ccccc1)NC(=O)OCc1ccccc1)B([O-])O.[K+] [Potassium Salt of TRI50C]
Thrombin time [2]; 0.5 hour
  Group mean thrombin times (s ± sd): 24.7 ± 2.18 s
Thrombin time [2]; 1 hour
  Group mean thrombin times (s ± sd): 24.1 ± 1.87 s
Thrombin time [2]; 2 hour
  Group mean thrombin times (s ± sd): 22.9 ± 3.29 s
Thrombin time [2]; 4 hour
  Group mean thrombin times (s ± sd): 23.2 ± 1.24 s
Thrombin time [2]; 8 hour
  Group mean thrombin times (s ± sd): 23.8 ± 1.79 s
Thrombin time [2]; −48 hour (pre-dose)
  Group mean thrombin times (s ± sd): 22.0 ± 1.40 s
Thrombin time [4]; 0.5 hour
  Group mean thrombin time (s ± sd): 26.5 ± 3.64 s
Thrombin time [4]; 1 hour
  Group mean thrombin time (s ± sd): 24.4 ± 3.35 s
Thrombin time [4]; 2 hour
  Group mean thrombin time (s ± sd): 23.2 ± 0.83 s
Thrombin time [4]; 4 hour
  Group mean thrombin time (s ± sd): 23.2 ± 2.36 s
Thrombin time [4]; 8 hour
  Group mean thrombin time (s ± sd): 21.6 ± 0.70 s
Thrombin time [4]; −48 hour (pre-dose)
  Group mean thrombin time (s ± sd): 20.0 ± 1.92 s
